Data published in patent US8562974B2, “Method for expanding Cd4+ Cd25+ T regulator cells” (Fondazione Telethon, priority 2005, dated 2013).

What was measured:
DO11.10 tg CD4^+ T cells [1] = test: Re-stimulation without compound after 3 rounds, CFSE dilution (anergy); type: cell-based, mice; settings: after 3 rounds with rapamycin, re-stimulated with APC+OVA without rapamycin and IL-2, 5 days
Protocol: The proportion of CFSE^+ cells proliferating in vitro was calculated as described elsewhere (Lyons 1994). Briefly, the number of cells (events) in a given cycle (division: n) was divided by 2 raised to power n, to calculate the percentage of original precursor cells from which they arose. The sum of original precursors from division 1 to 6 represents the number of precursors cells which proliferated. The percent of CFSE^+ divided cells was calculated by [(# of precursors that proliferated1-6/# of total precursors0-6)×100].
In more detail in relation to FIG. 1C, after 3 rounds of stimulation with APC+OVA (medium) or APC+OVA+rapamycin (rapamycin), DO11.10 tg CD4^+T cells were stained with CFSE and re-stimulated with APC+OVA in the absence of the compound and of exogenous IL-2. CFSE dilution was monitored 5 days after activation.

NOD CD4^+ T cells = test: Ex vivo expansion of NOD CD4+ T cells with rapamycin: regulatory markers; type: cell-based; settings: pre-diabetic 11 week old NOD mice, three rounds of stimulation
Protocol: CD4^+ T cells were obtained by incubation of splenocytes from pre-diabetic or diabetic NOD mice with αCD4 mAb-coated microbeads and applied onto MiniMacs columns (Miltenyi Biotec). The average purity was 95%. 1×10^6 CD4^+ T cells isolated from spleen of NOD mice were stimulated with coated 10 μg/ml of αCD3 and soluble 1 μg/ml of αCD28 mAbs (BD Biosciences). Cells were cultured in the presence of medium alone or 100 nM rapamycin (Sigma, St Louis, Mo.). Three rounds of stimulation of 7 days each were performed. IL-2 (BD Biosciences) was added starting from the second round of stimulation at 100 U/ml.
In this Example, we attempted to generate ex vivo Tr cells from non obese diabetic (NOD) mice. Spontaneously autoimmune diabetes in NOD mice mainly results from quantitative and qualitative changes in autoaggressive T effector cells. Older mice indeed harbor diabetogenic T cells that are progressively less prone to Tr cells-mediated inhibition (You et al. Diabetes, 2005). We tested whether rapamycin could expand functional Tr cells from NOD mice and whether these expanded T cells have a regulatory function. CD4^+ T cells were isolated from the spleen of pre-diabetic 11 week old NOD mice and were activated in vitro with anti-CD3 and CD28 mAbs in the presence of medium or rapamycin.

FOXP3 mRNA = test: FOXP3 quantitative PCR; settings: CD4+ T cells exposed to rapamycin
From the text: Total RNA was extracted with Eurozol (Euroclone, Switzerland), and cDNA was synthesized with High Capacity cDNA Archive Kit (Applied Biosystems, New Jersey, USA). Levels of FOXP3 mRNA was quantified using Assay on Demand real-time PCR kits (Applied Biosystems, New Jersey, USA) with TaqMan Universal PCR Master Mix (Applied Biosystems, New Jersey, USA). Levels of 18s rRNA was quantified as internal control by using TaqMan PDAR Eukaryotic 18s Endogenus Controls (Applied Biosystems, assay ID: Mm00475156m1). Samples were run in duplicate, and relative expression of FOXP3 was determined by normalizing to 18 s expression in each set of samples in order to calculate a fold-change in value.
To address this question, CD4^+ T cells depleted of the CD25^+ Tr cells were cultured for three weeks in the presence or absence of rapamycin. […] The cultured cells were added in equal number to naïve KJ1-26^+CFSE^+ cells (10^5:10^5) and proliferation was monitored by CFSE dilution. […] Relative levels of mRNA FOXP3 were determined by real time quantitative RT-PCR in CD4^+ (left panel) or CD4^+CD25^− (right panel) T cells repetitively activated in vitro with or without rapamycin. The amounts of FOXP3 mRNA are expressed as relative to that in splenocytes depleted of CD4^+CD25^+ T cells (which was given an arbitrary value of 1). […]

DO11.10 tg CD4^+ T cells [2] = test: Fold expansion of T cells over three rounds of APC+OVA stimulation, direct cell counts; type: cell-based, mice
Protocol: (§1) 1×10^6 CD4^+ T cells isolated from spleen of DO11.10 tg mice were stimulated with 4×10^6 APC from Balb/c mice (i.e. total splenocytes irradiated 3000 Rad) and 0.6 μM OVA323-339peptide (OVA) (Primm, Milano, Italy). Three rounds of stimulation of 7 days each were performed. IL-2 (BD Biosciences) was added starting from the second round of stimulation at 50 U/ml. Alternatively, 1×10^6 CD4^+ T cells isolated from spleen of Balb/c mice were stimulated with coated 10 μg/ml of αCD3 and soluble 1 μg/ml of αCD28 mAbs (BD Biosciences). Cells were cultured in the presence of medium alone or 100 nM rapamycin (Sigma, St Louis, Mo.). Three rounds of stimulation of 7 days each were performed. IL-2 (BD Biosciences) was added starting from the second round of stimulation at 50 U/ml. In separate experiments, sorted CD4^+CD25^+ T cells isolated from spleen of Balb/c mice were stimulated with coated 10 μg/ml of αCD3, soluble 1 μg/ml of αCD28 mAbs (BD Biosciences) and 1000 U/ml of IL-2. Cells were cultured in the presence of medium alone or 100 nM rapamycin (Sigma, St Louis, Mo.). 1000 U/ml of IL-2 was added at the beginning of each new stimulation.
Fold expansion of T cells was determined after each round of stimulation. […] Rapamycin binds to FKBP12 and the formed complex inhibits the function of mTOR, which is involved in a broad range of physiological processes linked to the control of cell-cycle. […]

CD4^+ T cells = test: In vitro treatment of CD4+ T cells with rapamycin: CD4+CD25+ Tr cell content; type: cell-based; settings: in vitro treatment of CD4+ T cells (5-10% Tr cells at start)
[3] = tested on: Balb/c CD4^+CD25^+ T cells; test: Culture of sorted CD4+CD25+ T cells with αCD3+αCD28+1000 U/ml IL-2: fold expansion and CD25bright content; type: cell-based, mice
Protocol: (§2) Cells were stained with the indicated Abs (all from BD Biosciences, Mountain View, Calif.), and were analyzed with a FACScan flow cytometer equipped with CellQuest software (BD Biosciences). To obtain highly purified CD4^+CD25^+/− T cells, CD4^+ T cells were first purified from splenocytes isolated from Balb/c mice by positive selection with αCD4 mAb-coated microbeads (Miltenyi Biotec, Bergisch Gladbach, Germany). Thereafter, CD4^+ T cells were stained with Cy-coupled αCD4 and PE-coupled αCD25 mAbs (BD Biosciences) and CD4^+CD25^+ T cells were sorted by FACS-sorting on a FAC-Star (BD Biosciences).
as §1, with “stimulation. […]” for “stimulation.”
Fold expansion of Balb/c CD4^+CD25^+ T cells 1, 2, and 3 weeks after culture in the presence of αCD3+αCD28+1000 U/ml IL-2 (medium, white bars) or αCD3+αCD28+1000 U/ml IL-2+rapamycin (rapamycin, dotted bars) was evaluated by direct cell counts. […] After seven days, cells were analyzed by FACS. […]

[4] = tested on: CD4^+CD25^− and CD4^+CD25^+ T cells; test: Proliferation of sorted CD4+CD25- and CD4+CD25+ T cells with anti-CD3+anti-CD28+IL-2, CFSE; type: cell-based, human; settings: 100 nM rapamycin, 7 days
Protocol: CD4^+CD25^− and CD4^+CD25^bright T cells were FACS sorted. Subsequently, sorted CD4^+CD25^− T cells were stained with CSFE and sorted CD4^+CD25^+ T cells were added back to the same amount present in unsorted CD4^+ T cells (5%) (FIG. 13, left panel). Alternatively, sorted CD4^+CD25^+ T cells were stained with CSFE and sorted CD4^+CD25^− T cells were added back to the same amount present in unsorted CD4^+ T cells (95%) (right panel of FIG. 13). The two distinct CFSE stained cell populations were activated with anti-CD3+anti-CD28 mAbs+IL-2 in the presence or absence of 100 nM rapamycin. CFSE dilution was monitored 7 days after activation. Numbers indicate the percentage of CFSE^+ dividing cells.

DO11.10 tg CD4^+ T cells [5] = test: Activation induced cell death (AICD) by annexin V binding, FACS; type: cell-based, mice; settings: APC+OVA, 100 nM rapamycin, 24 and 72 hours, vs control cells
Protocol: as §1
In more detail, DO11.10 tg CD4^+ T cells were cultured with APC+OVA (medium) or APC+OVA+rapamycin (rapamycin) and AICD was monitored by FACs after 24 and 72 hours of culture. Percentage of PI^+-annexinV^+ cells is indicated in each dot plot.

[6] = tested on: CD4^+ T cells isolated from PBMCs; test: TCR-mediated proliferation and anergy of human CD4+ T cells, CFSE; type: cell-based
Protocol: CD4^+ T cells isolated from PBMCs of healthy subjects or T1D patients were activated with plate bound anti-CD3 (10 μg/ml) and soluble of anti-CD28 (1 μg/ml) mAbs (BD Biosciences). Cells were cultured in the presence of medium (x-vivo 10) alone or with 100 nM rapamycin (Sigma, St Louis, Mo.). Three round of stimulations of 7 days each were performed. IL-2 (BD Biosciences) was added starting from the second round of stimulation at 100 U/ml.
CD4^+ T cells were stained with CFSE either at the beginning of the culture (1st week), or at the end of one (2nd week), or three (4th week) round of stimulations. CFSE^+ CD4^+ T cells were activated in vitro in the presence of anti-CD3+anti-CD28 mAbs in the presence or absence of 100 nM rapamycin. CFSE dilution was monitored 7 days after activation.
After 3 round of stimulations with anti-CD3+anti-CD28 mAbs (T medium) or anti-CD3+anti-CD28 mAbs+rapamycin (T rapamycin), CD4^+ T cells were stained with CFSE and re-stimulated with anti-CD3+anti-CD28 mAbs in the absence of the compound and of exogenous IL-2. CFSE dilution was monitored 7 days after activation. Numbers indicate the percentage of dividing cells.

DO11.10 tg CD4^+ T cells [7] = test: Cell size by FACS (FSC vs SSC) after 3 rounds of stimulation; type: cell-based, mice; settings: 3 weeks activation with rapamycin, one week rest with IL-2 50 U/ml
Protocol: After 3 rounds of stimulation with APC+OVA (medium) or APC+OVA+rapamycin (rapamycin), DO11.10 tg CD4^+ T cells were left resting for one additional week with no further stimulation in the presence of IL-2 (50 U/ml). At the end of the seven days cell size was analyzed by FACS by plotting FSC vs SSC parameters. Small (continuous line) and big (dotted line) cells are circled. Naïve CD4^+ T cells from a DO11.10 tg mouse were used as control.

DO11.10 tg CD4^+ T cells [8] = test: CD4+CD25bright T cell content after 3 rounds of stimulation, FACS; type: cell-based, mice
Protocol: as §2
as §1, with “Cells were cultured in the presence of medium alone or 100 nM rapamycin (Sigma, St Louis, Mo.). 1000 U/ml of IL-2 was added at the beginning of each new stimulation.” left out
After 3 rounds of stimulation with APC+OVA (medium) or APC+OVA+rapamycin (rapamycin), DO11.10 tg CD4^+ T cells were left resting for one week with no further stimulation in the presence of IL-2 (50 U/ml). After seven days cells were analyzed by FACS. […]
1×10^6 DO11.10 tg CD4^+ T cells (containing 70.000 CD4^+CD25^bright T cells) were cultured with APC+OVA (medium, white bar) or APC+OVA+rapamycin (dotted bar, rapamycin). After 3 rounds of stimulation, the total number of CD4^+CD25^brightT cells was determined by FACS.

CO[C@H]1C[C@@H]2CC[C@@H](C)[C@@](O)(O2)C(=O)C(=O)N2CCCC[C@H]2C(=O)O[C@H]([C@H](C)C[C@@H]2CC[C@@H](O)[C@H](OC)C2)CC(=O)[C@H](C)/C=C(\C)[C@@H](O)[C@@H](OC)C(=O)[C@H](C)C[C@H](C)/C=C/C=C/C=C/1C [rapamycin]
ability to proliferate on re-stimulation (DO11.10 tg CD4^+ T cells [1]): retained their ability to proliferate
enrichment in CD4+CD62L+ and CD45RBlow cells (NOD CD4^+ T cells): highly enriched in
FOXP3 expression (FOXP3 mRNA): enhanced
kinetic of proliferation (fold expansion) (DO11.10 tg CD4^+ T cells [2]; APC+OVA, 100 nM rapamycin, weeks 1-3): delayed kinetic of proliferation compared to control cells
number of T cells recovered (DO11.10 tg CD4^+ T cells [2]; end of the third week of culture): the same number of T cells was recovered in control- and rapamycin-cultures
increase of the CD4+CD25+ Tr cell content (CD4^+ T cells): 20 fold
kinetic of proliferation (fold expansion) ([3]; 100 nM rapamycin): delayed kinetic of proliferation compared to control cells
expansion ([3]; starting from the third week of culture): greatly expanded
percentage of CD4+CD25bright T cells ([3]; three weeks, vs control cells): higher percentage of
TCR-mediated proliferation of CD4+CD25- vs CD4+CD25+ T cells [4]: Selectively Blocks TCR-Mediated Proliferation of CD4^+CD25^− T Cells but not of CD4^+CD25^+ Tr Cells
apoptosis (AICD) upon in vitro activation (DO11.10 tg CD4^+ T cells [5]): neither increase nor reduction of apoptosis was observed
T cell anergy ([6]; after 3 rounds, re-stimulated without compound and IL-2): Does Not Induce T Cell Anergy
TCR-mediated proliferation of CD4+ T cells ([6]; anti-CD3+anti-CD28, 100 nM rapamycin): Strongly Reduces TCR-Mediated Proliferation
cell size and shape (DO11.10 tg CD4^+ T cells [7]): smaller and displayed a more round-like shape than control cells
enrichment in CD4+CD25bright T cells (DO11.10 tg CD4^+ T cells [8]; T cells activated in the presence of rapamycin): highly enriched in
content of CD4+CD25bright Tr cells (DO11.10 tg CD4^+ T cells [8]; cells exposed to rapamycin, 3 rounds APC+OVA): around 60%
total number of CD4+CD25bright T cells recovered (DO11.10 tg CD4^+ T cells [8]; three weeks of culture, repetitive Ag-stimulation): markedly superior to that of control cultures
